Data on 14 molecules can be found in patent EP0046707B1, “Derivatives of 4-aminobutyric acid and the medicines especially active on the central nervous system containing them” (priority 1980, dated 1982).

Test system in one data set: not listed separately
Kind of data set: Acute toxicity (mortality over 24 h). The note with it: in vivo, po; mouse, 500 mg/kg p. os, observed 24 h; read-out: p. cent de mortalité à 500 mg/kg p. os. The protocol: Les produits à étudier sont administrés par voie orale aux doses de 500 et 1 000 mg/kg à des lots de souris. On observe les souris pendant 24 h et note la mortalité.
Les résultats exprimés en pourcentage de mortalité figurent dans le tableau XI ci-après.
With `CCCCNC(=O)C(C)CCNC(=O)CCC` (stereo not drawn) [40 404], the mortality at 24 h turned out to be 0%.

As for `CCCCNC(=O)CCCNC(=O)C(C)(C)C` [40 254], the mortality at 24 h worked out at 0%.

With `CCCC(=O)NCCCC(=O)NC(C)C` [40 466], the mortality at 24 h was determined as 0%.

For the molecule `CCCCNC(=O)CCNC(=O)CCC` [40 253], the mortality at 24 h was determined as 0%.

As to `CCCCNC(=O)CCC(C)NC(=O)CCC` (stereo not drawn) [40 397], the mortality at 24 h was determined as 0%.

For the molecule `CCCNC(=O)CCCNC(=O)CCC` [40 398], the mortality at 24 h was 0%.

As to `CCCNC(=O)CCCNC(=O)CC(C)C` [40 418], the mortality at 24 h came to 0%.

Take `CCCCNC(=O)CCCNC(=O)C1CC1` [40 443]: the mortality at 24 h turned out to be 0%.

As to `CCCCCCNC(=O)CCCNC(=O)CCC` [40 947], the mortality at 24 h was 0%.

For `CCCC(=O)NCCCC(=O)NC1CCCC1` [40 209], the mortality at 24 h is 0%.

In the case of `CCCC(=O)NCCCC(=O)N(CCC)CCC` [40 217], the mortality at 24 h was determined as 0%.

As for `CCCCCN(CCCCC)C(=O)CCCNC(=O)CCC` [40 984], the mortality at 24 h came out at 0%.

As for `CCCC(=O)NCCCC(=O)N1CCOCC1` [40 206], the mortality at 24 h came out at 0%.

For the molecule `CCCC(=O)NCCCC(=O)NCC` [40 463], the mortality at 24 h was determined as 0%.

The same data set, now with this note: in vivo, po; mouse, 1000 mg/kg p. os, observed 24 h; read-out: p. cent de mortalité à 1000 mg/kg p. os.
On to `CCCCNC(=O)C(C)CCNC(=O)CCC` (stereo not drawn) [40 404], for which the mortality at 24 h came out at 0%.

As for `CCCCNC(=O)CCCNC(=O)C(C)(C)C` [40 254], the mortality at 24 h was determined as 20%.

With `CCCC(=O)NCCCC(=O)NC(C)C` [40 466], the mortality at 24 h is 0%.

With `CCCCNC(=O)CCNC(=O)CCC` [40 253], the mortality at 24 h worked out at 0%.

On to `CCCCNC(=O)CCC(C)NC(=O)CCC` (stereo not drawn) [40 397], for which the mortality at 24 h was 20%.

As for `CCCNC(=O)CCCNC(=O)CCC` [40 398], the mortality at 24 h was determined as 0%.

`CCCNC(=O)CCCNC(=O)CC(C)C` [40 418]: the mortality at 24 h turned out to be 0%.

Regarding `CCCCNC(=O)CCCNC(=O)C1CC1` [40 443], the mortality at 24 h was determined as 0%.

In the case of `CCCCCCNC(=O)CCCNC(=O)CCC` [40 947], the mortality at 24 h amounted to 0%.

On to `CCCC(=O)NCCCC(=O)NC1CCCC1` [40 209], for which the mortality at 24 h is 20%.

For the molecule `CCCC(=O)NCCCC(=O)N(CCC)CCC` [40 217], the mortality at 24 h is 0%.

Take `CCCCCN(CCCCC)C(=O)CCCNC(=O)CCC` [40 984]: the mortality at 24 h was 100%.

For the molecule `CCCC(=O)NCCCC(=O)N1CCOCC1` [40 206], the mortality at 24 h came to 0%.

On to `CCCC(=O)NCCCC(=O)NCC` [40 463], for which the mortality at 24 h worked out at 0%.

The next data set concerns souris. The data set is described as follows: Anticonvulsant effect against electroshock seizures. The data set is classed as in vivo. The note with it: 1 h; mouse, electroshock 12.5 V for 0.5 s, 60 min after oral dosing; read-out: Dose efficace médiane de protection des crises toniques (DE 50) Electrochoc. The protocol:
(§1) L'effet anticonvulsivant a été déterminé vis-à-vis des crises convulsives provoquées par l'électrochoc ou par la bicuculline.
L'électrochoc (12,5 V pendant 0,5 s) est effectué chez la souris 60 min après l'administration du produit par voie orale.
(§2) En opérant sur divers lots d'animaux avec des doses différentes du produit à étudier, on peut déterminer la dose efficace médiane (DE 50).
(§3) Les résultats sont rassemblés dans le tableau VIII ci-après et montrent les propriétés anticonvulsivan- tes nettes des produits étudiés.
Take `CCCCNC(=O)CCNC(=O)CCC` [40 253]: the ED50 is 500 mg/kg.

For `CCCCCCNC(=O)CCCNC(=O)CCC` [40 947], the ED50 turned out to be 400 mg/kg.

The test system of another data set is souris. Kind of data set: Potentiation of pentobarbital narcosis (loss of righting reflex). Format: in vivo. The settings on record: mouse, 500 mg/kg p. os 1 h before pentobarbital 20 mg/kg i.p. The protocol: Les produits à étudier ont été administrés per os chez la souris à la dose de 500 mg/kg, 1 h avant le pentobarbital injecté par voie intrapéritonéale à raison de 20 mg/kg.
On détermine le pourcentage des animaux ayant perdu le réflexe de retournement. Les résultats sont exprimés en pourcentage ou, dans quelques cas, en dose efficace 50 (DE 50) ou dose provoquant la narcose chez 50 % des animaux traités.
Les résultats figurent dans le tableau VI ci-après.
Consider `CCCCNC(=O)C(C)CCNC(=O)CCC` (stereo not drawn) [40 404], for which the “Pourcentage d'animaux en narcose à 500 mg/kg p. os” value is reported as 40%.

`CCCCNC(=O)CCCNC(=O)C(C)(C)C` [40 254]: the “Pourcentage d'animaux en narcose à 500 mg/kg p. os” value is given as 50%.

As to `CCCC(=O)NCCCC(=O)NC(C)C` [40 466], the “Pourcentage d'animaux en narcose à 500 mg/kg p. os” value is listed as 30%.

In the case of `CCCCNC(=O)CCNC(=O)CCC` [40 253], the “Pourcentage d'animaux en narcose à 500 mg/kg p. os” value worked out at 50%.

Take `CCCCNC(=O)CCC(C)NC(=O)CCC` (stereo not drawn) [40 397]: the “Pourcentage d'animaux en narcose à 500 mg/kg p. os” value was 100%.

With `CCCCNC(=O)CCCNC(=O)C1CC1` [40 443], the “Pourcentage d'animaux en narcose à 500 mg/kg p. os” value is listed as 40%.

For `CCCC(=O)NCCCC(=O)N(CCC)CCC` [40 217], the “Pourcentage d'animaux en narcose à 500 mg/kg p. os” value was 0%.

On to `CCCCCN(CCCCC)C(=O)CCCNC(=O)CCC` [40 984], for which the “Pourcentage d'animaux en narcose à 500 mg/kg p. os” value was determined as 60%.

Take `CCCC(=O)NCCCC(=O)N1CCOCC1` [40 206]: the “Pourcentage d'animaux en narcose à 500 mg/kg p. os” value turned out to be 0%.

The same data set, now with this note: po; mouse, p. os 1 h before pentobarbital 20 mg/kg i.p.; unit not given for DE 50; read-out: dose (p. os) provoquant 50 % d'induction de narcose (DE 50).
On to `CCCNC(=O)CCCNC(=O)CCC` [40 398], for which the ED50 is 350 mg/kg.

In a further data set the test system is souris. Kind of data set: Actography (locomotor activity, two perpendicular light beams). Format: in vivo. The note with it: mouse, 500 mg/kg oral; grouping in words. The protocol:
La mesure de l'actographie est effectuée chez la souris 45 min. après l'administration du produit. On opère sur des lots de 12 animaux, chacun d'eux étant isolé pendant 10 min. avant la mesure. Le comptage des scores est effectué par coupure de deux faisceaux lumineux perpendiculaires.
Dans le tableau IV ci-après sont rassemblés les résultats obtenus avec divers produits de l'invention administrés à la dose de 500 mg/kg par voie orale. Les résultats sont exprimés en pourcentage de variation des scores obtenus par rapport à des animaux témoins non traités.
On peut constater que les produits se répartissent en deux groupes : • ceux provoquant de l'hypomotilité tels que 40217, 40039, 40271, 40272, 40319; dans le cas où les animaux traités présentent une perte du réflexe de retournement, ce qui traduit l'effet de narcose propre du produit, on a noté PRR; • ceux provoquant de l'hypermotilité, tels que 40142, 40398, 40397, 40404, 40253, 40355, 40209; pour préciser les résultats obtenus, l'étude pour deux produits a été reprise en effet-dose suivant le même protocole. • Les résultats obtenus figurent dans le tableau V ci-après.
As to `CCCCNC(=O)C(C)CCNC(=O)CCC` (stereo not drawn) [40 404], the “hypomotilité / hypermotilité” value is recorded as “hypermotilité”.

Take `CCCCNC(=O)CCNC(=O)CCC` [40 253]: the “hypomotilité / hypermotilité” value is given as “hypermotilité”.

Turning to `CCCCNC(=O)CCC(C)NC(=O)CCC` (stereo not drawn) [40 397], the “hypomotilité / hypermotilité” value is on record as “hypermotilité”.

Regarding `CCCNC(=O)CCCNC(=O)CCC` [40 398], the “hypomotilité / hypermotilité” value is on record as “hypermotilité”.

In the case of `CCCC(=O)NCCCC(=O)NC1CCCC1` [40 209], the “hypomotilité / hypermotilité” value was “hypermotilité”.

Consider `CCCC(=O)NCCCC(=O)N(CCC)CCC` [40 217], for which the “hypomotilité / hypermotilité” value is “hypomotilité”.

The subject of another data set is souris. The data set is described as follows: Anticonvulsant effect against bicuculline-induced tonic seizures. The settings on record: 1 h; mouse, bicuculline 1 mg/kg i.v. 60 min after oral dosing; read-out: Dose efficace médiane de protection des crises toniques (DE 50) Bicuculline. The data set is classed as in vivo. The method, then: as §1
La bicuculline est administrée à la souris par voie intraveineuse à raison de 1 mg/kg, 60 min après le produit à étudier donné per os. On note l'effet protecteur obtenu vis-à-vis des crises toniques.
as §2, §3
Take `CCCCNC(=O)CCCNC(=O)C(C)(C)C` [40 254]: the ED50 is less than 500 mg/kg.

Take `CCCCNC(=O)CCNC(=O)CCC` [40 253]: the ED50 is less than 500 mg/kg.

For `CCCNC(=O)CCCNC(=O)CC(C)C` [40 418], the ED50 was determined as 300 mg/kg.

As to `CCCCCCNC(=O)CCCNC(=O)CCC` [40 947], the ED50 came to 250 mg/kg.

With `CCCC(=O)NCCCC(=O)NCC` [40 463], the ED50 came to 380 mg/kg.
